According to ChEMBL document CHEMBL5528002, “Identification of selective 5-LOX and FLAP inhibitors as novel anti-inflammatory agents by ligand-based virtual screening” (Eur J Med Chem, 2024):
The source made the active and inactive calls. No cut-off for these calls is given here.

How the values were obtained:
Macrophage cell line [1] = test: Effect on lipid mediator formation in human M1-like phenotype MDM cells by measuring LTB4 formation at 10 uM pre-incubated for 15 mins followed by SACM stimulation and measured after 90 mins by UPLC-MS/MS analysis relative to control; assay type: functional; settings: time 105 min, 1.75 h
Macrophage cell line [2] = test: Effect on lipid mediator formation in human M2-like phenotype MDM cells by measuring PGF2alpha formation at 10 uM pre-incubated for 15 mins followed by SACM stimulation and measured after 90 mins by UPLC-MS/MS analysis relative to control; assay type: functional; settings: time 105 min, 1.75 h
Macrophage cell line [3] = test: Effect on lipid mediator formation in human M2-like phenotype MDM cells by measuring 14-HDHA formation at 10 uM pre-incubated for 15 mins followed by SACM stimulation and measured after 90 mins by UPLC-MS/MS analysis relative to control; assay type: functional; settings: time 105 min, 1.75 h
Neutrophil = test: Inhibition of ROS production in PMA-induced human Neutrophil cells at 10 uM incubated for 10 mins by DCFH-DA dye based fluorometric assay; assay type: functional, cell-based
Macrophage cell line [4] = test: Effect on lipid mediator formation in human M2-like phenotype MDM cells by measuring 7-HDHA formation at 10 uM pre-incubated for 15 mins followed by SACM stimulation and measured after 90 mins by UPLC-MS/MS analysis relative to control; assay type: functional; settings: time 105 min, 1.75 h
Macrophage cell line [5] = test: Effect on lipid mediator formation in human M1-like phenotype MDM cells by measuring 7-HDHA formation at 10 uM pre-incubated for 15 mins followed by SACM stimulation and measured after 90 mins by UPLC-MS/MS analysis (reference value: 118 +/- 14 pg/ml); assay type: functional; settings: time 105 min, 1.75 h
Macrophage cell line [6] = test: Effect on lipid mediator formation in human M2-like phenotype MDM cells by measuring DHA formation at 10 uM pre-incubated for 15 mins followed by SACM stimulation and measured after 90 mins by UPLC-MS/MS analysis (reference value: 50400 +/- 3051 pg/ml); assay type: functional; settings: time 105 min, 1.75 h
Macrophage cell line [7] = test: Effect on lipid mediator formation in human M1-like phenotype MDM cells by measuring EPA formation at 10 uM pre-incubated for 15 mins followed by SACM stimulation and measured after 90 mins by UPLC-MS/MS analysis relative to control; assay type: functional; settings: time 105 min, 1.75 h
Macrophage cell line [8] = test: Effect on lipid mediator formation in human M2-like phenotype MDM cells by measuring TXB2 formation at 10 uM pre-incubated for 15 mins followed by SACM stimulation and measured after 90 mins by UPLC-MS/MS analysis (reference value: 4488 +/- 452 pg/ml); assay type: functional; settings: time 105 min, 1.75 h
Macrophage = test: Cytotoxicity against human MDM cells assessed as reduction in cell viability at 10 uM incubated for 24 hrs by MTT assay; assay type: toxicity, cell-based; settings: macrophage cell line
Macrophage cell line [9] = test: Effect on lipid mediator formation in human M1-like phenotype MDM cells by measuring 15-HETE formation at 10 uM pre-incubated for 15 mins followed by SACM stimulation and measured after 90 mins by UPLC-MS/MS analysis relative to control; assay type: functional; settings: time 105 min, 1.75 h
Macrophage cell line [10] = test: Effect on lipid mediator formation in human M1-like phenotype MDM cells by measuring 14-HDHA formation at 10 uM pre-incubated for 15 mins followed by SACM stimulation and measured after 90 mins by UPLC-MS/MS analysis (reference value: 100 +/- 21 pg/ml); assay type: functional; settings: time 105 min, 1.75 h
Macrophage cell line [11] = test: Effect on lipid mediator formation in human M2-like phenotype MDM cells by measuring 5-HEPE formation at 10 uM pre-incubated for 15 mins followed by SACM stimulation and measured after 90 mins by UPLC-MS/MS analysis (reference value: 299 +/- 20 pg/ml); assay type: functional; settings: time 105 min, 1.75 h
Macrophage cell line [12] = test: Effect on lipid mediator formation in human M2-like phenotype MDM cells by measuring 5S,6R-diHETE formation at 10 uM pre-incubated for 15 mins followed by SACM stimulation and measured after 90 mins by UPLC-MS/MS analysis (reference value: 206 +/- 47 pg/ml); assay type: functional; settings: time 105 min, 1.75 h
Macrophage cell line [13] = test: Effect on lipid mediator formation in human M2-like phenotype MDM cells by measuring PGE2 formation at 10 uM pre-incubated for 15 mins followed by SACM stimulation and measured after 90 mins by UPLC-MS/MS analysis (reference value: 159 +/- 24 pg/ml); assay type: functional; settings: time 105 min, 1.75 h
Macrophage cell line [14] = test: Effect on lipid mediator formation in human M1-like phenotype MDM cells by measuring 5,15-diHETE formation at 10 uM pre-incubated for 15 mins followed by SACM stimulation and measured after 90 mins by UPLC-MS/MS analysis (reference value: 122 +/- 58 pg/ml); assay type: functional; settings: time 105 min, 1.75 h
Macrophage cell line [15] = test: Effect on lipid mediator formation in human M2-like phenotype MDM cells by measuring 5-HETE formation at 10 uM pre-incubated for 15 mins followed by SACM stimulation and measured after 90 mins by UPLC-MS/MS analysis (reference value: 4812 +/- 561 pg/ml); assay type: functional; settings: time 105 min, 1.75 h
Macrophage cell line [16] = test: Effect on lipid mediator formation in human M2-like phenotype MDM cells by measuring LTB4 formation at 10 uM pre-incubated for 15 mins followed by SACM stimulation and measured after 90 mins by UPLC-MS/MS analysis (reference value: 509 +/- 30 pg/ml); assay type: functional; settings: time 105 min, 1.75 h
Macrophage cell line [17] = test: Effect on lipid mediator formation in human M1-like phenotype MDM cells by measuring 12-HETE formation at 10 uM pre-incubated for 15 mins followed by SACM stimulation and measured after 90 mins by UPLC-MS/MS analysis relative to control; assay type: functional; settings: time 105 min, 1.75 h
Macrophage cell line [18] = test: Effect on lipid mediator formation in human M2-like phenotype MDM cells by measuring PGD2 formation at 10 uM pre-incubated for 15 mins followed by SACM stimulation and measured after 90 mins by UPLC-MS/MS analysis (reference value: 48 +/- 13 pg/ml); assay type: functional; settings: time 105 min, 1.75 h
Macrophage cell line [19] = test: Effect on lipid mediator formation in human M1-like phenotype MDM cells by measuring 5,15-diHETE formation at 10 uM pre-incubated for 15 mins followed by SACM stimulation and measured after 90 mins by UPLC-MS/MS analysis relative to control; assay type: functional; settings: time 105 min, 1.75 h
[20] = Antioxidant activity assessed as DPPH radical scavenging activity at 10 uM incubated for 30 min by DPPH assay; assay type: functional
Macrophage cell line [21] = test: Effect on lipid mediator formation in human M2-like phenotype MDM cells by measuring 15-HETE formation at 10 uM pre-incubated for 15 mins followed by SACM stimulation and measured after 90 mins by UPLC-MS/MS analysis relative to control; assay type: functional; settings: time 105 min, 1.75 h
Macrophage cell line [22] = test: Effect on lipid mediator formation in human M2-like phenotype MDM cells by measuring arachidonic acid formation at 10 uM pre-incubated for 15 mins followed by SACM stimulation and measured after 90 mins by UPLC-MS/MS analysis relative to control; assay type: functional; settings: time 105 min, 1.75 h
Macrophage cell line [23] = test: Effect on lipid mediator formation in human M1-like phenotype MDM cells by measuring DHA formation at 10 uM pre-incubated for 15 mins followed by SACM stimulation and measured after 90 mins by UPLC-MS/MS analysis (reference value: 66334 +/- 8894 pg/ml); assay type: functional; settings: time 105 min, 1.75 h

COc1ccc(C2=C/C(=C/c3ccc(O)cc3O)C(=O)O2)cc1 showed an Activity (Macrophage cell line [1]) of 8%, an Activity (Macrophage cell line [2]) of 125% and an Activity (Macrophage cell line [3]) of 179%. The inhibition (Neutrophil) was “inactive”, the Activity (Macrophage cell line [4]) was 121% and the Activity (Macrophage cell line [5]) was 36 pg/mL. It also gave an Activity (Macrophage cell line [6]) of 53610 pg/mL, an Activity (Macrophage cell line [7]) of 136% and an Activity (Macrophage cell line [8]) of 3416 pg/mL. For the same compound, the Activity (Macrophage) was “Non-Toxic”, the Activity (Macrophage cell line [9]) was 90% and the Activity (Macrophage cell line [10]) was 93 pg/mL. For the same compound, the Activity (Macrophage cell line [11]) was 55 pg/mL, the Activity (Macrophage cell line [12]) was 8 pg/mL and the Activity (Macrophage cell line [13]) was 412 pg/mL. It also gave an Activity (Macrophage cell line [14]) of 16 pg/mL, an Activity (Macrophage cell line [15]) of 450 pg/mL and an Activity (Macrophage cell line [16]) of 22 pg/mL. It also gave an Activity (Macrophage cell line [17]) of 87%, an Activity (Macrophage cell line [18]) of 96 pg/mL and an Activity (Macrophage cell line [19]) of 13%. For the same compound, the Activity [20] was “inactive”, the Activity (Macrophage cell line [21]) was 136% and the Activity (Macrophage cell line [22]) was 103%. It also gave an Activity (Macrophage cell line [23]) of 71742 pg/mL.
Oc1ccc(CCC2CCC(c3ccc(O)cc3)CO2)cc1 (stereo not given) gave an Activity (Macrophage cell line [1]) of 6%, an Activity (Macrophage cell line [2]) of 80% and an Activity (Macrophage cell line [3]) of 139%. The inhibition (Neutrophil) was “inactive”, the Activity (Macrophage cell line [4]) was 116% and the Activity (Macrophage cell line [5]) was 45 pg/mL. For the same compound, the Activity (Macrophage cell line [6]) was 53713 pg/mL, the Activity (Macrophage cell line [7]) was 113% and the Activity (Macrophage cell line [8]) was 3850 pg/mL. For the same compound, the Activity (Macrophage) was “Non-Toxic”, the Activity (Macrophage cell line [9]) was 85% and the Activity (Macrophage cell line [10]) was 88 pg/mL. The Activity (Macrophage cell line [11]) was 102 pg/mL, the Activity (Macrophage cell line [12]) was 14 pg/mL and the Activity (Macrophage cell line [13]) was 234 pg/mL. The Activity (Macrophage cell line [14]) was 37 pg/mL, the Activity (Macrophage cell line [15]) was 1181 pg/mL and the Activity (Macrophage cell line [16]) was 71 pg/mL. For the same compound, the Activity (Macrophage cell line [17]) was 87%, the Activity (Macrophage cell line [18]) was 62 pg/mL and the Activity (Macrophage cell line [19]) was 30%. The Activity [20] was “inactive”, the Activity (Macrophage cell line [21]) was 144% and the Activity (Macrophage cell line [22]) was 113%. The Activity (Macrophage cell line [23]) was 62371 pg/mL.
